Results reported in the supplement of paper PMC10307832.

Assays:
Experiment in all cases: relative viability (nuclei count vs DMSO), 5 days (fraction); higher = more cells survive
KIN001-266 = compound: CCN1CCC(CC1)N2C=C(N=N2)CNC3=CC4=C(C(=CN=C4C(=C3)Cl)C#N)NC5=CC(=C(C=C5)F)Cl [KIN001-266]
Method in brief: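 Viability was read as treated-well nuclei divided by vehicle-well nuclei, using the median across plates. Lung cancer cell lines in 1536-well plates were kept overnight at 37 °C, pinned with five √10-spaced library-drug doses, and after 5 days were Hoechst-stained, imaged at 4× and counted in MetaXpress. Plates passed only with control CV below 25% and at least one doubling.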

KIN001-266 + Luminespib = compound: CCN1CCC(CC1)N2C=C(N=N2)CNC3=CC4=C(C(=CN=C4C(=C3)Cl)C#N)NC5=CC(=C(C=C5)F)Cl [KIN001-266] + CCNC(=O)c1noc(-c2cc(C(C)C)c(O)cc2O)c1-c1ccc(CN2CCOCC2)cc1 [Luminespib] (partner 0.01 µM)
Method in brief: (§1)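 Lung cancer cell lines in 1536-well plates got either a single drug or a fixed anchor-drug dose together with five library-drug doses (not always all listed) in √10 steps, by pin tool, on the day after seeding. Nuclei were counted after 5 days, and relative viability is the treated-to-vehicle ratio of nuclei counts. Values are medians of duplicate plates.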

KIN001-266 + Foretinib = compound: CCN1CCC(CC1)N2C=C(N=N2)CNC3=CC4=C(C(=CN=C4C(=C3)Cl)C#N)NC5=CC(=C(C=C5)F)Cl [KIN001-266] + COc1cc2c(Oc3ccc(NC(=O)C4(C(=O)Nc5ccc(F)cc5)CC4)cc3F)ccnc2cc1OCCCN1CCOCC1 [Foretinib] (partner 0.25 µM)
Method in brief: as §1

KIN001-266 + OSI-027 = compound: CCN1CCC(CC1)N2C=C(N=N2)CNC3=CC4=C(C(=CN=C4C(=C3)Cl)C#N)NC5=CC(=C(C=C5)F)Cl [KIN001-266] + COc1cccc2cc(-c3nc([C@H]4CC[C@H](C(=O)O)CC4)n4ncnc(N)c34)[nH]c12 [OSI-027] (partner 0.5 µM)
Method in brief: as §1

KIN001-266 + Tozasertib = compound: CCN1CCC(CC1)N2C=C(N=N2)CNC3=CC4=C(C(=CN=C4C(=C3)Cl)C#N)NC5=CC(=C(C=C5)F)Cl [KIN001-266] + Cc1cc(Nc2cc(N3CCN(C)CC3)nc(Sc3ccc(NC(=O)C4CC4)cc3)n2)n[nH]1 [Tozasertib] (partner 0.1 µM)
Method in brief: as §1

KIN001-266 + Dasatinib = compound: CCN1CCC(CC1)N2C=C(N=N2)CNC3=CC4=C(C(=CN=C4C(=C3)Cl)C#N)NC5=CC(=C(C=C5)F)Cl [KIN001-266] + Cc1nc(Nc2ncc(C(=O)Nc3c(C)cccc3Cl)s2)cc(N2CCN(CCO)CC2)n1 [Dasatinib] (partner 0.075 µM)
Method in brief: as §1

KIN001-266 + Phenformin = compound: CCN1CCC(CC1)N2C=C(N=N2)CNC3=CC4=C(C(=CN=C4C(=C3)Cl)C#N)NC5=CC(=C(C=C5)F)Cl [KIN001-266] + N=C(N)NC(=N)NCCc1ccccc1 [Phenformin] (partner 250 µM)
Method in brief: as §1

NCI-H1623 showed a relative viability (KIN001-266; 0.08 µM) of 0.963, a relative viability (KIN001-266; 0.253 µM) of 0.96 and a relative viability (KIN001-266; 0.8 µM) of 0.955. The relative viability (KIN001-266; 2.53 µM) was 1.07, the relative viability (KIN001-266; 8 µM) was 1.01 and the relative viability (KIN001-266 + Luminespib; first compound 0.08 µM) was 0.423. The relative viability (KIN001-266 + Luminespib; first compound 0.253 µM) was 0.624, the relative viability (KIN001-266 + Luminespib; first compound 0.8 µM) was 0.57 and the relative viability (KIN001-266 + Luminespib; first compound 2.53 µM) was 0.475. It also gave a relative viability (KIN001-266 + Luminespib; first compound 8 µM) of 0.536, a relative viability (KIN001-266 + Foretinib; first compound 0.08 µM) of 1.05 and a relative viability (KIN001-266 + Foretinib; first compound 0.253 µM) of 0.865. For the same cell line, the relative viability (KIN001-266 + Foretinib; first compound 0.8 µM) was 0.871, the relative viability (KIN001-266 + Foretinib; first compound 2.53 µM) was 0.894 and the relative viability (KIN001-266 + Foretinib; first compound 8 µM) was 0.875. For the same cell line, the relative viability (KIN001-266 + OSI-027; first compound 0.08 µM) was 0.457, the relative viability (KIN001-266 + OSI-027; first compound 0.253 µM) was 0.437 and the relative viability (KIN001-266 + OSI-027; first compound 0.8 µM) was 0.385. It also gave a relative viability (KIN001-266 + OSI-027; first compound 2.53 µM) of 0.453, a relative viability (KIN001-266 + OSI-027; first compound 8 µM) of 0.433 and a relative viability (KIN001-266 + Tozasertib; first compound 0.08 µM) of 0.468. It also gave a relative viability (KIN001-266 + Tozasertib; first compound 0.253 µM) of 0.421, a relative viability (KIN001-266 + Tozasertib; first compound 0.8 µM) of 0.461 and a relative viability (KIN001-266 + Tozasertib; first compound 2.53 µM) of 0.432. It also gave a relative viability (KIN001-266 + Tozasertib; first compound 8 µM) of 0.422, a relative viability (KIN001-266 + Dasatinib; first compound 0.08 µM) of 0.579 and a relative viability (KIN001-266 + Dasatinib; first compound 0.253 µM) of 0.514. The relative viability (KIN001-266 + Dasatinib; first compound 0.8 µM) was 0.447, the relative viability (KIN001-266 + Dasatinib; first compound 2.53 µM) was 0.547 and the relative viability (KIN001-266 + Dasatinib; first compound 8 µM) was 0.475. The relative viability (KIN001-266 + Phenformin; first compound 0.08 µM) was 0.652, the relative viability (KIN001-266 + Phenformin; first compound 0.253 µM) was 0.603 and the relative viability (KIN001-266 + Phenformin; first compound 0.8 µM) was 0.577. The relative viability (KIN001-266 + Phenformin; first compound 2.53 µM) was 0.611 and the relative viability (KIN001-266 + Phenformin; first compound 8 µM) was 0.526.
